US9709555B2, “Compound for generating second harmonic of light, dye composition for generating second harmonic of light, and cell examination method” (KEIO UNIVERSITY, priority 2013, dated 2017)
≈ marks a conversion by molar mass, not a printed value. Entries after “also recorded” stand apart in the source; their conditions may differ.

Key:
[1] = Evaluation of solubility of dyes; assay type: physicochemical; details: for Dissolving in DMSO: DMSO added to a dye concentration of about 100 mM; for Solubility (μM) / solubility: solubility into a buffer, DMSO solution diluted 1000 times with extracellular fluid; for solubility: extracellular fluid (Artificial Cerebrospinal Fluid), aqueous buffer, kinetic from dmso stock; for Solubility into a buffer: result in words
Method: Furthermore, using anionic, neutral, zwitter, and dicationic dyes shown in Table 1, solubility into a buffer, toxicity, and presence or absence of SHG and TPF signals when applied to cultured cells (CHO cells) were evaluated, respectively. Herein, the dyes #1 to 5 are dyes for generating a second harmonic of light outside of the range of the present invention, and the dyes #6 and 7 are dyes for generating a second harmonic of light within the range of the present invention.
DMSO (dimethyl sulfoxide) was added to the synthesized dye group (dyes #1 to #7) in Table 2 to have a concentration of a dye at about 100 mM and dissolving was attempted.
(§1) DMSO solutions of the dyes #1 to #3, #4, #5 and Ap3 were diluted 1000 times using an extracellular fluid (Artificial Cerebrospinal Fluid), and when all were assumed to be dissolved, the final concentration was set at about 100 μM.

CHO cells [2] = assay: Evaluation of SHG and TPF signals of dyes applied to CHO cells; assay type: cell-based, Chinese Hamster; details: about 100 μM dye, pulse laser at 1,000 nm, qualitative comparison
Method: as §1
A CHO (Chinese Hamster Ovary) cell cultured on a cover glass was used as an observation subject, immersed into the above described dye solution to try dyeing a cell membrane, and directly observed under a microscope within several minutes.
A multiphoton laser microscope system (FV1000MPE manufactured by Olympus Corporation) on which an ultrashort femtosecond laser (MaitaiHP manufactured by Newport) was mounted was used for the observation, and SHG and two-photon fluorescence (Two-Photon Fluorescence: TPF) after irradiation by a pulse laser at 1,000 nm were observed under the same detection condition for each dye. Three images were obtained by changing fields of view per each dye, and signal intensities were qualitatively compared among the dyes. FIGS. 4 to 6 show images of Comparative Examples 4 to 6, and FIGS. 7 and 8 show images of Examples 2 and 3, respectively.

CHO cells [3] = assay: Evaluation of cytotoxicity of dyes (cell forms before and after dyeing); assay type: cell-based, Chinese Hamster; details: cell form before and after dyeing, differential interference figure
Method: For evaluation of cytotoxicity due to a dye, cell forms before and after dyeing were confirmed from a differential interference figure using near-infrared light. Cytotoxicity was evaluated by particularly focusing on two points that 1) a cell having an extended structure due to interaction with an extracellular matrix loses its adhesion to thus separate from a cover glass and is rounded, and 2) a cell membrane having a smooth form becomes an inhomogeneous and uneven form, when the physiological condition of the cell deteriorates.

[4] = system: cultured human normal astrocyte; assay: SHG and TPF imaging of dye introduced into cultured human normal astrocyte; assay type: cell-based; details: 100 μM dye in buffer, introduced by pipette, 1,000 nm exciting light; for SHG signal: SHG at 500 nm
Method: A buffer containing 100 μM of FM4-64 was prepared and introduced into a cultured human normal astrocyte using a pipette. The dye that was introduced into the cell spreads throughout the entire cell over time.
For the measurement, a multiphoton microscope capable of SHG imaging and TPF imaging obtained by incorporating a tunable femtosecond mode synchronous infrared laser into a commercially available confocal laser scanning microscope was used as the light source. By irradiating with 1,000 nm of exciting light, an SHG signal light having a wavelength of 500 nm is generated from the dye in the same direction as the direction in which an infrared pulse laser travels. The signal can be detected in a photomultiplier tube provided on the laser light traveling direction side. A back scattered component of the TPF signal light is also observed by irradiating with the same exciting light.
SHG and TPF imaging was carried out in the same manner as Comparative Example 1 except for using Ap1 to Ap3 as dyes, and these cases were Comparative Examples 2 and 3 and Example 1, respectively.

nerve cell = details: dye introduced from the cell exterior, femtosecond laser; cited from earlier work

Row | Compound | Dissolving in DMSO [1] | Solubility (μM) [1] | SHG signal (CHO cells [2]) | TPF signal (CHO cells [2]) | solubility [1] | Solubility into a buffer [1] | Toxicity (CHO cells [3]) | TPF signal [4] | SHG signal [4] | Fluorescent (TPF) signal (nerve cell) | SHG signal (nerve cell)
1 | CCCCCCN(CCCCCC)c1ccc(/N=N/c2ccc(C=C(C#N)C#N)cc2)cc1 [#5] | no dissolving | Insoluble | not obtained at all | not obtained at all |  |  |  |  |  |  | 
2 | CCCCCCN(CCCCCC)c1ccc(/N=N/c2cc[n+](CCCS(=O)(=O)[O-])cc2)cc1 [#6, (E)-3-(4-((4-(dihexylamino)phenyl)diazenyl)pyridin-1-ium-1-yl)propane-1-sulfonate] | poor solubility |  | observed and Fine | not observed and None | < 100 µM | no problem | no problem; also recorded: Little |  |  |  | 
3 | CCCCCCCCN(CCCCCCCC)c1ccc(/N=N/c2ccc(S(=O)(=O)O)cc2)cc1 [#3] | easily dissolved |  | Good | None | ~100 µM (≈ 50.2 µg/mL) |  | Some |  |  |  | 
4 | CCCCCCN(CCCCCC)c1ccc(/N=N/c2cc[n+](CCC[N+](CC)(CC)CC)cc2)cc1 [Ap3] |  |  | observed and Good | not observed and None | 100 µM | no problem | no problem; also recorded: Little | not observed | can be observed |  | 
5 | CCCCCCCCN(CCCCCCCC)c1ccc(/N=N/c2cc[n+](CCCS(=O)(=O)[O-])cc2)cc1 [#7, (E)-3-(4-((4-(dioctylamino)phenyl)diazenyl)pyridin-1-ium-1-yl)propane-1-sulfonate] | poor solubility |  | observed and Fine | not observed and None | < 100 µM | no problem | no problem; also recorded: Little |  |  |  | 
6 | CCCCCCN(CCCCCC)c1ccc(/N=N/c2ccc(C=O)cc2)cc1 [#4] | no dissolving | Insoluble | not obtained at all | not obtained at all |  |  |  |  |  |  | 
7 | CCCCCCN(CCCCCC)c1ccc(/N=N/c2ccc(S(=O)(=O)O)cc2)cc1 [#2] | easily dissolved |  | Good | None | ~100 µM (≈ 44.6 µg/mL) |  | High |  |  |  | 
8 | CCN(CC)c1ccc(/C=C/C=C/C=C/c2cc[n+](CCC[N+](CC)(CC)CC)cc2)cc1 [FM4-64, reference compound] |  |  |  |  |  |  |  | observed | observed | detected | very strong
9 | CCCCN(CCCC)c1ccc(/N=N/c2ccc(S(=O)(=O)O)cc2)cc1 [#1] | easily dissolved |  | Good | None | ~100 µM (≈ 39 µg/mL) |  | High |  |  |  | 
